This is an account of results in patent US11535621B2, “Heterobicyclic amides as inhibitors of CD38” (Ribon Therapeutics, Inc., priority 2019, dated 2022).

Bounds are passed on as bounds.

Chain of Human CD38 (P28907 whole entry): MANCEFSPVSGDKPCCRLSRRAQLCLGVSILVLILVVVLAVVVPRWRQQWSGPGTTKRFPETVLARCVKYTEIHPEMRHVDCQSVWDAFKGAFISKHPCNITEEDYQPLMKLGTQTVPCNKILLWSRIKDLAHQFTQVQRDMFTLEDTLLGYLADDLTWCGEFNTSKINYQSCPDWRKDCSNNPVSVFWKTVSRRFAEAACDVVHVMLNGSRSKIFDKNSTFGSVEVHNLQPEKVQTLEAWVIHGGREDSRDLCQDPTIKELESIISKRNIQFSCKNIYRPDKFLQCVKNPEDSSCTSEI

This experiment deals with Human CD38 (Homo sapiens (Human), UniProt P28907). The experiment is described as follows: CD38 enzyme assay. It counts as biochemical. As to conditions: 2 nM CD38, NAD+ substrate, absorbance at 405 nm. In outline:
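IC50 values come from fitting % inhibition against compound concentration with a 4-parameter logistic, or a 3-parameter fit with top/bottom fixed at 100/0 or Hill at 1. Inhibition is scaled between DMSO wells and positive-control wells treated with a quinolinone CD38 inhibitor.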
A word on the IC50: it is the concentration that gives 50% inhibition. As for `CC(C)NC(=O)c1nc(-n2ccnc2)nc2cc[nH]c12` [Example 93, 2-(1H-Imidazol-1-yl)-N-isopropyl-5H-pyrrolo[3,2-d]pyrimidine-4-carboxamide], the IC50 was in the range of 10 to 100 nM.
With `Cn1ccc(NC(=O)c2nc(-n3ccnc3)nc3cc[nH]c23)n1` [Example 94, 2-(1H-Imidazol-1-yl)-N-(1-methyl-1H-pyrazol-3-yl)-5H-pyrrolo[3,2-d]pyrimidine-4-carboxamide] the figure was less than 10 nM.
As to `Cn1cnc(NC(=O)c2nc(-n3ccnc3)nc3cc[nH]c23)c1` [Example 95, 2-(1H-Imidazol-1-yl)-N-(1-methyl-1H-imidazol-4-yl)-5H-pyrrolo[3,2-d]pyrimidine-4-carboxamide], the half-inhibitory concentration (IC50) lay in the range of 10 to 100 nM.
With `O=C(Nc1ccc(F)c(Cl)c1)c1nc(-n2ccnc2)nc2cc[nH]c12` [Example 96, N-(3-Chloro-4-fluorophenyl)-2-(1H-imidazol-1-yl)-5H-pyrrolo[3,2-d]pyrimidine-4-carboxamide] the figure was less than 10 nM.
With `O=C(N[C@H]1CC[C@H](OCCN2CCOCC2)CC1)c1nc(-n2ccnc2)nc2cc[nH]c12` [Example 97, 2-(1H-Imidazol-1-yl)-N-((1r,4r)-4-(2-morpholinoethoxy)cyclohexyl)-5H-pyrrolo[3,2-d]pyrimidine-4-carboxamide] the figure was 10 to 100 nM; with `O=C(Nc1cn[nH]c1)c1nc(-n2ccnc2)nc2cc[nH]c12` [Example 98, 2-(1H-Imidazol-1-yl)-N-(1H-pyrazol-4-yl)-5H-pyrrolo[3,2-d]pyrimidine-4-carboxamide], less than 10 nM.
With `Cn1cc(NC(=O)c2nc(-n3ccnc3)nc3cc[nH]c23)cn1` [Example 99, 2-(1H-Imidazol-1-yl)-N-(1-methyl-1H-pyrazol-4-yl)-5H-pyrrolo[3,2-d]pyrimidine-4-carboxamide] the figure was less than 10 nM; with `COCCOc1cccc(NC(=O)c2nc(-n3ccnc3)nc3cc[nH]c23)c1` [Example 100, 2-(1H-Imidazol-1-yl)-N-(3-(2-methoxyethoxy)phenyl)-5H-pyrrolo[3,2-d]pyrimidine-4-carboxamide], less than 10 nM.
The molecule `O=C(N[C@H]1CC[C@H](NCC(F)(F)F)CC1)c1nc(-n2ccnc2)nc2cc[nH]c12` [Example 101, 2-(1H-imidazol-1-yl)-N-((1r,4r)-4-((2,2,2-trifluoroethyl)amino)cyclohexyl)-5H-pyrrolo[3,2-d]pyrimidine-4-carboxamide] yielded an IC50 of 10 to 100 nM.
For `O=C(N[C@H]1CC[C@@H](NCC(F)(F)F)CC1)c1nc(-n2ccnc2)nc2cc[nH]c12` [Example 102, 2-(1H-imidazol-1-yl)-N-((1s,4s)-4-((2,2,2-trifluoroethyl)amino)cyclohexyl)-5H-pyrrolo[3,2-d]pyrimidine-4-carboxamide] the value was 10 to 100 nM; for `O=C(N[C@H]1CC[C@H](NCCC(F)(F)F)CC1)c1nc(-n2ccnc2)nc2cc[nH]c12` [Example 103, 2-(1H-imidazol-1-yl)-N-((1r,4r)-4-((3,3,3-trifluoropropyl)amino)cyclohexyl)-5H-pyrrolo[3,2-d]pyrimidine-4-carboxamide], 10 to 100 nM.
`N#CCO[C@H]1CC[C@H](NC(=O)c2nc(-n3ccnc3)nc3cc[nH]c23)CC1` [Example 104, N-((1r,4r)-4-(cyanomethoxy)cyclohexyl)-2-(1H-imidazol-1-yl)-5H-pyrrolo[3,2-d]pyrimidine-4-carboxamide]: the IC50 was less than 10 nM.
With `O=C(N[C@H]1CC[C@H](NCC(F)F)CC1)c1nc(-n2ccnc2)nc2cc[nH]c12` [Example 105, N-((1r,4r)-4-((2,2-difluoroethyl)amino)cyclohexyl)-2-(1H-imidazol-1-yl)-5H-pyrrolo[3,2-d]pyrimidine-4-carboxamide] the figure was 10 to 100 nM; with `O=C(N[C@H]1CC[C@@H](NCC(F)F)CC1)c1nc(-n2ccnc2)nc2cc[nH]c12` [Example 106, N-((1s,4s)-4-((2,2-difluoroethyl)amino)cyclohexyl)-2-(1H-imidazol-1-yl)-5H-pyrrolo[3,2-d]pyrimidine-4-carboxamide], 100 to 1000 nM; with `O=C(NC1CCC(F)(F)CC1)c1nc(-n2ccnc2)cc2cn[nH]c12` [Example 107, N-(4,4-difluorocyclohexyl)-5-(1H-imidazol-1-yl)-1H-pyrazolo[3,4-c]pyridine-7-carboxamide], less than 10 nM.
For `COCCO[C@H]1CC[C@H](NC(=O)c2nc(-n3ccnc3)nc3cc(C)[nH]c23)CC1` [Example 108, 2-(1H-imidazol-1-yl)-N-((1r,4r)-4-(2-methoxyethoxy)cyclohexyl)-6-methyl-5H-pyrrolo[3,2-d]pyrimidine-4-carboxamide] the value was 10 to 100 nM.
With `CC(C)(O)[C@H]1CC[C@H](NC(=O)c2nc(-n3ccnc3)cc3cn[nH]c23)CC1` [Example 109, N-((1r,4r)-4-(2-hydroxypropan-2-yl)cyclohexyl)-5-(1H-imidazol-1-yl)-1H-pyrazolo[3,4-c]pyridine-7-carboxamide] the figure was less than 10 nM; with `CN(CCC(F)(F)F)[C@H]1CC[C@H](NC(=O)c2nc(-n3ccnc3)nc3cc[nH]c23)CC1` [Example 110, 2-(1H-imidazol-1-yl)-N-((1r,4r)-4-(methyl(3,3,3-trifluoropropyl)amino)cyclohexyl)-5H-pyrrolo[3,2-d]pyrimidine-4-carboxamide], 10 to 100 nM.
`CN(CCC(F)(F)F)[C@H]1CC[C@@H](NC(=O)c2nc(-n3ccnc3)nc3cc[nH]c23)CC1` [Example 111, 2-(1H-imidazol-1-yl)-N-((1s,4s)-4-(methyl(3,3,3-trifluoropropyl)amino)cyclohexyl)-5H-pyrrolo[3,2-d]pyrimidine-4-carboxamide]: the 50% inhibitory concentration (IC50) lay within 100 to 1000 nM.
With `CN(CC(F)(F)F)[C@H]1CC[C@H](NC(=O)c2nc(-n3ccnc3)nc3cc[nH]c23)CC1` [Example 112, 2-(1H-imidazol-1-yl)-N-((1r,4r)-4-(methyl(2,2,2-trifluoroethyl)amino)cyclohexyl)-5H-pyrrolo[3,2-d]pyrimidine-4-carboxamide] the figure was 10 to 100 nM.
For `CN(CC(F)(F)F)[C@H]1CC[C@@H](NC(=O)c2nc(-n3ccnc3)nc3cc[nH]c23)CC1` [Example 113, 2-(1H-imidazol-1-yl)-N-((1s,4s)-4-(methyl(2,2,2-trifluoroethyl)amino)cyclohexyl)-5H-pyrrolo[3,2-d]pyrimidine-4-carboxamide] the value was 10 to 100 nM; for `CC(=O)NC[C@H]1CC[C@H](NC(=O)c2nc(-n3ccnc3)nc3cc[nH]c23)CC1` [Example 114, N-((1r,4r)-4-(acetamidomethyl)cyclohexyl)-2-(1H-imidazol-1-yl)-5H-pyrrolo[3,2-d]pyrimidine-4-carboxamide], less than 10 nM.
For `O=C(N[C@H]1CC[C@H](NCC(F)(F)F)CC1)c1nc(-n2ccnc2)cc2cn[nH]c12` [Example 115, 5-(1H-imidazol-1-yl)-N-((1r,4r)-4-((2,2,2-trifluoroethyl)amino)cyclohexyl)-1H-pyrazolo[3,4-c]pyridine-7-carboxamide] the value was 10 to 100 nM.
In turn, `O=C(N[C@H]1CC[C@@H](NCC(F)(F)F)CC1)c1nc(-n2ccnc2)cc2cn[nH]c12` [Example 116, 5-(1H-imidazol-1-yl)-N-((1s,4s)-4-((2,2,2-trifluoroethyl)amino)cyclohexyl)-1H-pyrazolo[3,4-c]pyridine-7-carboxamide] registered an IC50 of 10 to 100 nM.
With `Cc1nc2nc(-n3ccnc3)nc(C(=O)NC3CCC(F)(F)CC3)c2[nH]1` [Example 117, N-(4,4-difluorocyclohexyl)-2-(1H-imidazol-1-yl)-8-methyl-7H-purine-6-carboxamide] the figure was 10 to 100 nM; with `CC(C)(C#N)c1ccc(NC(=O)c2nc(-n3ccnc3)nc3cc[nH]c23)cc1` [Example 118, N-[4-(1-cyano-1-methyl-ethyl)phenyl]-2-imidazol-1-yl-5H-pyrrolo[3,2-d]pyrimidine-4-carboxamide], less than 10 nM.
Take `O=C(N[C@H]1CC[C@](O)(C(F)(F)F)CC1)c1nc(-n2ccnc2)nc2cc[nH]c12` [Example 120a, N-((1s,4s)-4-hydroxy-4-(trifluoromethyl)cyclohexyl)-2-(1H-imidazol-1-yl)-5H-pyrrolo[3,2-d]pyrimidine-4-carboxamide]: the IC50 is less than 10 nM.
For `O=C(N[C@H]1CC[C@@](O)(C(F)(F)F)CC1)c1nc(-n2ccnc2)nc2cc[nH]c12` [Example 120b, N-((1r,4r)-4-hydroxy-4-(trifluoromethyl)cyclohexyl)-2-(1H-imidazol-1-yl)-5H-pyrrolo[3,2-d]pyrimidine-4-carboxamide] the value was 10 to 100 nM; for `O=C(N[C@H]1CC[C@H](C(F)(F)F)CC1)c1nc(-n2ccnc2)nc2ccsc12` [Example 121, 2-(1H-imidazol-1-yl)-N-((1r,4r)-4-(trifluoromethyl)cyclohexyl)thieno[3,2-d]pyrimidine-4-carboxamide], less than 10 nM; for `O=C(N[C@H]1CC[C@@H](C(F)(F)F)CC1)c1nc(-n2ccnc2)nc2ccsc12` [Example 122, 2-(1H-imidazol-1-yl)-N-((1s,4s)-4-(trifluoromethyl)cyclohexyl)thieno[3,2-d]pyrimidine-4-carboxamide], less than 10 nM.
Consider `O=C(N[C@@H]1CCNC[C@@H]1F)c1nc(-n2ccnc2)nc2cc[nH]c12` [Example 123a, N-((3S,4R)-3-fluoropiperidin-4-yl)-2-(1H-imidazol-1-yl)-5H-pyrrolo[3,2-d]pyrimidine-4-carboxamide], for which the IC50 fell in the range of 10 to 100 nM.
`O=C(N[C@@H]1CCNC[C@H]1F)c1nc(-n2ccnc2)nc2cc[nH]c12` [Example 123b, N-((3R,4R)-3-fluoropiperidin-4-yl)-2-(1H-imidazol-1-yl)-5H-pyrrolo[3,2-d]pyrimidine-4-carboxamide] showed an IC50 of 100 to 1000 nM.
For the molecule `COCCO[C@H]1CCC[C@H](NC(=O)c2nc(-n3ccnc3)nc3cc[nH]c23)C1` [Example 124a, 2-(1H-imidazol-1-yl)-N-((1S,3S)-3-(2-methoxyethoxy)cyclohexyl)-5H-pyrrolo[3,2-d]pyrimidine-4-carboxamide], the half-inhibitory concentration (IC50) lay within 10 to 100 nM.
